Paper PMC6154745 (Oncotarget, 2018)

Test system: lung miRNAs
Experiment: miRNA expression (microarray), Study 3, lung
Assay type: in vivo, ICR (CD-1) mice
Description: Each group was composed of 10 female mice.
The urine was collected for 8 h and pooled from the mice belonging to each experimental group in Study 3 by using metabolic cages during the day preceding euthanasia of mice. Immediately after sacrifice, a bronchoalveolar lavage (BAL) was performed and used for preparing BALF, and the blood was collected and used for preparing serum. BALF and blood serum were pooled within each experimental group. The organs reported in the general design of the studies were collected, as previously described. Immediately after collection, each organ or fluid was immersed in RNAlater and kept at -80°C for miRNA analysis. Portions of the organs used in Study 1 and Study 2 were stored at -80°C for evaluating DNA damage.
For evaluating the expression of pulmonary miRNAs we used the 7th generation miRCURY LNA™ microRNA Array (Exiqon), which contains 3,100 capture probes covering human, mouse and rat miRNAs. In particular, this array covers 1,135 mouse miRNAs, i.e. the 88.6% of the 1,281 mouse miRNAs listed in miRBase 19. Microarray analyses were carried out as previously described.
Treatment-related differences in body weights, in the frequency of MN NCE, and in the levels of pulmonary DNA adducts and 8-oxo-dGuo, all of them expressed as means ± SE within each group of mice, were evaluated for statistical significance by ANOVA followed by Student's t test for unpaired data. miRNA microarray data, after local background subtraction, log transformation, and normalization were analyzed by GeneSpring software (Agilent, Santa Clara, CA), and expression data were median centered by using the GeneSpring normalization option.

[1] = low dose (20 mg/kg diet) vs sham

With `Cc1ccc(-c2cc(C(F)(F)F)nn2-c2ccc(S(N)(=O)=O)cc2)cc1` [Celecoxib, 4-[5-(4-methylphenyl)-3-(trifluoromethyl)-1H-pyrazol-1-yl] benzene-1-sulfonamide] the miR-361 upregulation was 8 fold, the “upregulated/downregulated miRNAs” value (MCS-exposed mice) was 0/1 and the “upregulated/downregulated miRNAs” value (MCS-free mice) was 14/0. The “number of miRNAs modulated by celecoxib” value (high dose) was 15, the “number of miRNAs modulated” value (low dose) was 3 and the miR-296 upregulation [1] was 2.4 fold. For the same compound, the miR-551b upregulation [1] was 2.2 fold and the miR185 downregulation (low dose (20 mg/kg diet), compared to MCS-exposed mice) was 2.8 fold.
